A word on the EC50: it is the concentration that produces a half-maximal response. What is called AUC(0-inf) is total exposure, with the tail of the curve extrapolated. Low values mean low exposure, high ones high exposure. For orientation: Cmax means the highest concentration seen after dosing. The term IC50 denotes the point on the concentration scale where inhibition reaches its midpoint. Higher therefore signals weaker potency.

One series concerns HeLa cells. In words: Arresting cells in mitosis (Mitotic Index, phosphorylated Histone H3 immunofluorescence). It is filed as cell-based. To be noted: Homo sapiens, HeLa; separate experiment; read-out: EC50 in the mitotic arrest assay. The procedure:
Assay to Measure the Effects of Compounds of the Invention on Arresting Cells in Mitosis
Inhibiting the ability of PLK1 to bind to its phosphopeptide binding partners through the PBD causes cells to arrest in mitosis. Experimentally, this is measured by assessing the number of cells which are in mitosis at a certain time after treatment with a PLK1-PBD inhibitor by immunofluorescent detection of phosphorylated Histone H3 (pH3), a marker which is only present in mitotic cells. PLK1-PBD inhibitors are expected to cause a dose-dependent increase in pH3-positive cells, which is reported as Mitotic Index (MI)—the percentage of cells which, at a given time, are positive for this mitotic mark. The following protocol has been used to measure MI: • 1. Plate HeLa cells at 10,000/well in 100 μL/well in clear flat-bottom 96-well plates and incubate overnight. • 2. Immediately prior to treatment, dilute compounds in medium in a 96-well round-bottom plate. Make up all compounds at 5 times final desired concentration on cells, and serially dilute 1:2 across the plate ensuring that there is 100 μL of each concentration (start with 200 μl of the top concentration on the left of the plate). […] Treat cells by adding 25 μL from the compound dilution plate to triplicate wells. • 4. Incubate cells with compound for 24 hours. • 5. After 24 hours, fixation and staining is carried out as follows: • 6. Dilute 37% formaldehyde in PBS to give a 12.95% solution by adding 3.5 mL formaldehyde to 6.5 mL of PBS. • 7. Add 50 μL of formaldehyde fixation solution directly to each well of cells (which already contain 125 μL medium). • 8. Incubate at room temp for 10 minutes. • 9. Remove fixative and add 100 μL/well PBS+0.1% Triton X-100 for 10 minutes. • 10. Aspirate and add 100 μL/well PBS+1% BSA. • 11. Aspirate and add 50 μL/well of primary antibody (anti-PH3 [1:2000]/anti-MPM2 [1:1000]) diluted in PBS+1% BSA. Incubate for 1 hour. • 12. Wash×2 with 100 μL/well PBS+1% BSA. • 13. Add 50 μL/well of secondary antibody plus Hoechst stain (anti-rabbit Alexafluor 488 [1:500]; anti-mouse Alexafluor 546 [1:500]+Hoechst 33342 [1:2500 final concentration=4 μg/mL])diluted in PBS+1% BSA. Incubate for 1 hour. • 14. Wash twice with 100 μL/well PBS+1% BSA. • 15. Aspirate and add 100 μL/well PBS. Plates can be stored at 4° C. in PBS for several weeks before scanning on the Cellomics Arrayscan. […] Scan on Cellomics using Target Activation Bioapplication. • 17. MI data emerging from the Cellomic Bioapplication can be used to plot MI versus compound concentration, and subsequently used to generate an EC50 value for each compound using an appropriate graphing/curve-fitting package such as GraphPad Prism.

Series [1] in a line: Determination of oral bioavailability (plasma pharmacokinetics i.v. and p.o.). Type of series: in vivo, Male CD-1 mice. The settings on record: mice. The procedure:
Determination of Oral Bioavailability The oral bioavailability of the compound of Example 33 was determined in mice and compared with the bioavailability following intravenous injection using the following protocol. […] N=3 mice per time point with 15 ul plasma per aliquot.

Series [2] deals with glioblastoma cell line 906871. In words: Glioblastoma cancer cell viability, cell line 906871. Type of series: cell-based. As to the method: (§1) Assay to Measure the Effects of Compounds of the Invention on Glioblastoma Cancer Cell Viability
(§2) The compound of Example 33 was tested for inhibitory activity against the glioblastoma cell lines in Table 7 below.

Series [3] deals with glioblastoma cell line 1240170. In words: Glioblastoma cancer cell viability, cell line 1240170. Type of series: cell-based. As to the method:
as §1, §2

For series [4], the system named is glioblastoma cell line 687586. In words: Glioblastoma cancer cell viability, cell line 687586. Type of series: cell-based. The procedure:
as §1, §2

The next series deals with T1, SBK1 (Homo sapiens, UniProt Q52WX2).
T1 construct: purchased DiscoverX
T1 sequence (Q52WX2 whole entry): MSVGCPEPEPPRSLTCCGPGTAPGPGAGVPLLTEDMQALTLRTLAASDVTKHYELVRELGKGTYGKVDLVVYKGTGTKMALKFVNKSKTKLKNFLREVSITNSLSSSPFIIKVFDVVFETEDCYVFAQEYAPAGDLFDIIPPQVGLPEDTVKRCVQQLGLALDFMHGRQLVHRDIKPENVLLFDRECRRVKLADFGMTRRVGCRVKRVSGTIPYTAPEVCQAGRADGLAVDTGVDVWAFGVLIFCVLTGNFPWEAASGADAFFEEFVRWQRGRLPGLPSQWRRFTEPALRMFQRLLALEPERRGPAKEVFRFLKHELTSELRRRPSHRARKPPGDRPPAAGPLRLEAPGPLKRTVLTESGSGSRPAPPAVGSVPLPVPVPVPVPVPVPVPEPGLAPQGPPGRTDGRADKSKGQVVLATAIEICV
In words: Kinase selectivity assay (DiscoverX KinomeScreen), SBK1. Type of series: binding. To be noted: SBK1, 5 μM; read-out: % Control. The procedure: (§3) The compound of Example 33 was tested for off-target activity against a panel of fifty five kinases bearing functional or structural similarity to PLK1 at a concentration of 5 μM using the DiscoverX KinomeScreen assay.

The target of a further series is T2, ULK1 (Homo sapiens, UniProt O75385).
T2 construct: purchased DiscoverX
T2 sequence (O75385 whole entry): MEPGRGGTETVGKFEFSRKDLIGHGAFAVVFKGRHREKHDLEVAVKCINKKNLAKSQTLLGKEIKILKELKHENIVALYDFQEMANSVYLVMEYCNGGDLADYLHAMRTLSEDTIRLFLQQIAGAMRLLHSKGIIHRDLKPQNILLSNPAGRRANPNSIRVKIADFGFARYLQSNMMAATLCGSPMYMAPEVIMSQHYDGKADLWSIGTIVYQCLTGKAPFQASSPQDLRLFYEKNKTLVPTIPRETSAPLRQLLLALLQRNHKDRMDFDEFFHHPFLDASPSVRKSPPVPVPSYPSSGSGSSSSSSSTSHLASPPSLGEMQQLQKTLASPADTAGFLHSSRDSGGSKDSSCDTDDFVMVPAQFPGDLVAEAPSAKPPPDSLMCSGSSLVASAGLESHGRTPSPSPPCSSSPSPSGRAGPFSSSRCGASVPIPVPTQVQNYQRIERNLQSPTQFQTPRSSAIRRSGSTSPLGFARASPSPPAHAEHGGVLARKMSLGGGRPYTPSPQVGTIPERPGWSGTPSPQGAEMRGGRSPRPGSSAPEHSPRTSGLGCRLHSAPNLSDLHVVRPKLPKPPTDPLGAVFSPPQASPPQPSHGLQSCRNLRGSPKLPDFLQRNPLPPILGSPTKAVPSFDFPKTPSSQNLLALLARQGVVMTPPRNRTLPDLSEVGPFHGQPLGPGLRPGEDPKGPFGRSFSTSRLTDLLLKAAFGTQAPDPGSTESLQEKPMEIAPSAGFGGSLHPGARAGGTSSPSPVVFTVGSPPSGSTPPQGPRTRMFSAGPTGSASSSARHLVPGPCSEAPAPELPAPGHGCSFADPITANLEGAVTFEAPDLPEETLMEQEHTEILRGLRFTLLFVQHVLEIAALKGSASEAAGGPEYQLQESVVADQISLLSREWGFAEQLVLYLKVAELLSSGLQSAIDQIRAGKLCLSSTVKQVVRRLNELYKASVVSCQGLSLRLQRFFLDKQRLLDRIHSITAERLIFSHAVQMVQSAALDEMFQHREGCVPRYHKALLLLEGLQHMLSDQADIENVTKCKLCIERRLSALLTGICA
In words: Kinase selectivity assay (DiscoverX KinomeScreen), ULK1. Type of series: binding. To be noted: ULK1, 5 μM; read-out: % Control. The procedure: as §3

The next series addresses T3, ULK2 (Homo sapiens, UniProt Q8IYT8).
T3 construct: purchased DiscoverX
In words: Kinase selectivity assay (DiscoverX KinomeScreen), ULK2. The settings on record: ULK2, 5 μM; read-out: % Control. It is filed as binding. The procedure:
as §3

The mark [5] stands for this setting: male, CD-1, mouse, 2 mg/kg IV, plasma.
[6] abbreviates: male, CD-1, mouse, 10 mg/Kg PO, plasma.

Where a name gives a salt, the structure may show the parent alone.

T3 sequence (Q8IYT8 whole entry): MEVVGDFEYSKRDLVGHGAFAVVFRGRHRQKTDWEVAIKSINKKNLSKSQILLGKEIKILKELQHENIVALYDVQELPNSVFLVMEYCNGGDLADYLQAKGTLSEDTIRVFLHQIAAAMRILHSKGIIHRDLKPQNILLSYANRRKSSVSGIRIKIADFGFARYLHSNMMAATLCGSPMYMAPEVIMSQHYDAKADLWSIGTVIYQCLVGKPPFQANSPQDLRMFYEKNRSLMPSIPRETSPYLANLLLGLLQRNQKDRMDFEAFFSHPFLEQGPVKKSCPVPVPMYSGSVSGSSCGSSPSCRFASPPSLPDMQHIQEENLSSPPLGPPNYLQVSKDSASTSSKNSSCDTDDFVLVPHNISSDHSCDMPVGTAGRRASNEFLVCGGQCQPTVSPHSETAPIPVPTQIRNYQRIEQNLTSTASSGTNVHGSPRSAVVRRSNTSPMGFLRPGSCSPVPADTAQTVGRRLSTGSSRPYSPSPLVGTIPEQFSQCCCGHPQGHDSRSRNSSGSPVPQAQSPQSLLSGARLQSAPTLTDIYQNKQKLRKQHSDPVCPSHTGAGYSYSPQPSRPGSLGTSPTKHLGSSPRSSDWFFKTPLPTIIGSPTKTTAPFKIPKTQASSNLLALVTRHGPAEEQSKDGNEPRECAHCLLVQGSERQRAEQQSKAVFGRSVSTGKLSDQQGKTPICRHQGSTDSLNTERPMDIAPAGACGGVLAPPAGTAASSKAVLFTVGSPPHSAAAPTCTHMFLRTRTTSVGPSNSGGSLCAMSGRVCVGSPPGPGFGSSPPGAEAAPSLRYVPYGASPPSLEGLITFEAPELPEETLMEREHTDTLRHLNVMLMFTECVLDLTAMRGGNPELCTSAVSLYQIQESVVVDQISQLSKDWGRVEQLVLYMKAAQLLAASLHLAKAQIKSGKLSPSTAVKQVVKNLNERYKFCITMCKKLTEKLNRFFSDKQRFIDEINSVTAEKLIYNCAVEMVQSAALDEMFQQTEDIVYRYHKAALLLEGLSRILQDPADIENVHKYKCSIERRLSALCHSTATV

As for `CN(C)CCNC(=O)c1ccc(-c2ccc(-c3ccc(Cl)cc3)n2-c2ccccc2C(F)(F)F)cc1` [Example 33, 4-[5-(4-chlorophenyl)-1-[2-(trifluoromethyl)phenyl]pyrrol-2-yl]-N-[2-(dimethylamino)ethyl]benzamide Hydrochloride], the EC50 in the series with HeLa cells was determined as 61 ± 10 nM. Also, the values for the total exposure AUC(0-inf) in series [1] (setting [5]) and in series [1] (setting [6]) were 2100 ng·h/mL and 9800 ng·h/mL, respectively. For the same molecule, the values for the highest concentration (Cmax) in series [1] (setting [5]) and in series [1] (setting [6]) were 873 ng/mL and 415 ng/mL, respectively. The half-life in series [1] (male, CD-1, mouse, 2 mg/kg IV, plasma, read-out: T½ (converted)) was 13 h. Moreover, in series [1] (male, CD-1, mouse, 2 mg/kg IV, plasma, read-out: Vss), the Vd came to 17 L/kg. In series [1] (2 mg/kg IV, plasma), this molecule returned a CI of 16 mL/min/kg. In series [1] (10 mg/Kg PO versus 2 mg/kg IV), this molecule yielded an F of 93%. In series [1] (10 mg/Kg PO, plasma), the T½ turned out to be 15 h. In series [1] (10 mg/Kg PO, plasma), this molecule gave a Vz of 23 L/kg. Moreover, the IC50 in series [2] was 283 nM; in series [3], 363 nM; in series [4], 489 nM. For the same molecule, the results for the remaining activity at 5 µM at SBK1, on ULK1 and on ULK2 were 61%, 84% and 100%, respectively.

Values taken from US11208405B2, “Pyrrole derivatives as PLK1 inhibitors” (SENTINEL ONCOLOGY LIMITED, priority 2017, dated 2021).
